In patent US20150273088A1 (Board of Regents, The University of Texas System, priority 2014, published 2015):

Columns and labels:
[1] = tested on: HT1080 cells (endogenous IDH1 R132C); assay: 2HG fluorimetric assay / high-throughput screen, secreted 2HG in media; assay type: cell-based, human; settings: for Secreted (extracellular) 2HG: HT1080 cells, 48 hours, fluorescent assay, normalized to viability
Experimental: 2HG fluorimetric assay. N-terminal 6×-His tagged PHGDH was expressed and purified from chemically competent BL-21 E. coli using Ni-NTA agarose (Qiagen) (Grant et al., 1999). Purified protein was then dialyzed in 40 mM KPO4 buffer at 4° C. overnight. Conditioned culture media (DMEM or aMEM) containing 2HG was neutralized with 60 mM HCL for 10 minutes followed by 60 mM Tris base. A 20 μL aliquot of neutralized conditioned media was then mixed with 90 μL of optimized assay reaction mix consisting of 5 μg purified PHGDH enzyme, 12.5 μM resazurin (Sigma-Aldrich), 0.125 U/ml diaphorase (Sigma-Aldrich), 1 mM NAD (Sigma-Aldrich), 40 mM Tris-HCl pH 8.8, and incubated for 90 minutes in a 96-well plate. Resorufin fluorescence was then quantified using a FLUOstar™ OPTIMA fluorescence plate reader (BMG Labtech) with excitation and emission peaks of 544 nm and 590 nm, respectively. Measurements were background subtracted (neutralized fresh media) and normalized either to total protein or viability as measured by Alamar Blue (Naik et al., 2009).
High-throughput screening. Screening was carried out using the Beckman Coulter (Fullerton, Calif.) Core Robotics system, including an FX liquid handler, controlled by the Sagian graphical method development tool (SAMI scheduling software). The Institute of Chemistry and Cell Biology (ICCB) Known Bioactives Library (Enzo Lifescience, BML-2840-0100) was diluted 1:200 in αMEM and 50 μL were added to pre-plated HT1080 cells. After 48 hours of incubation, media was removed and 2HG in the media was measured using the fluorimetric assay. Fresh 2HG fluorimetric assay reaction mix was prepared immediately before assaying each screen plate to limit background modulation. Cell viability was determined using Alamar Blue, as described previously (Naik et al., 2009).
To identify screen hits and account for differences in compound toxicity, 2HG fluorescence was first median-centered around DMSO treatment controls within each screen plate. 2HG fluorescence was then plotted against viability such that a correlation between the two measurements could be visualized. A linear fit and 95% predictive interval (P.I.) were then determined and plotted using GraphPad Prism (GraphPad Software).

HT1080 cells = assay: GC-MS quantification of 2HG and upstream metabolites in HT1080 cells; assay type: cell-based, human; settings: HT1080, 300 μM Zaprinast or 10 μM BPTES
Experimental: GC-MS analysis. Metabolite extraction from cultured cells was performed as described previously by Figueroa et al. (2010). Briefly, cells were rinsed in ice cold PBS and rapidly quenched with 80% methanol spiked with 3-hydroxy-1,5-pentanedioic-2,2,3,4,4-d5 acid (CDN Isotopes, Quebec Canada) as an internal standard. Extracts were then incubated at −80° C. for 20 minutes, sonicated on ice, centrifuged at 14,000×g for 20 minutes at 4° C. to clear precipitate proteins, and supernatants transferred to vials for drying under N2. Derivatizing reagent (MSTFA (N-methyl-N-(trimethylsilyl)trifluoroacetamide):pyridine:acetonitrile 1:1:2) was added to the vials, which were then heated at 70° C. for 15 minutes.
Derivatized samples were analyzed on an Agilent 7890A gas chromatograph interfaced to an Agilent 5975C mass spectrometer. The GC column used for the study was a HP-5MS (30 m, 0.25 mm i.d., 0.25 μm film coating). A linear temperature gradient was used. The initial temperature of 80° C. was held for 2 minute and increased to 300° C. at 10° C./minute. The temperature was held at 300° C. for 2 minutes. The samples were run by electron ionization (EI) and the source temperature, electron energy, and emission current were 200° C., 70 eV, and 300 μA, respectively. The injector and transfer line temperatures were 250° C. 3-Hydroxy-1,5-pentanedioic-2,2,3,4,4-d5 acid was used as the internal standard in SIM mode for quantitation of 2-hydroxyglutaric acid. Quantitation was carried out by monitoring the ions at m/z 347 (glutamine and αKG), 348 (glutamate), 349 (2-hydroxyglutaric acid), and 354 (3-hydroxy-1,5-pentanedioic-2,2,3,4,4-d5).

[2] = tested on: D54 glioblastoma cells expressing IDH1 R132H; settings: cited from earlier work
[3] = molecular target: T1, purified, full length, human GLS1 (Homo sapiens, UniProt O94925); assay: Glutaminase assay (two-step, purified enzyme); assay type: biochemical; settings: control experiment, 10 mM glutamine
T1 construct: 6xHis (N); made in house; host or cells: E. coli BL-21
T1 sequence (O94925 55-669): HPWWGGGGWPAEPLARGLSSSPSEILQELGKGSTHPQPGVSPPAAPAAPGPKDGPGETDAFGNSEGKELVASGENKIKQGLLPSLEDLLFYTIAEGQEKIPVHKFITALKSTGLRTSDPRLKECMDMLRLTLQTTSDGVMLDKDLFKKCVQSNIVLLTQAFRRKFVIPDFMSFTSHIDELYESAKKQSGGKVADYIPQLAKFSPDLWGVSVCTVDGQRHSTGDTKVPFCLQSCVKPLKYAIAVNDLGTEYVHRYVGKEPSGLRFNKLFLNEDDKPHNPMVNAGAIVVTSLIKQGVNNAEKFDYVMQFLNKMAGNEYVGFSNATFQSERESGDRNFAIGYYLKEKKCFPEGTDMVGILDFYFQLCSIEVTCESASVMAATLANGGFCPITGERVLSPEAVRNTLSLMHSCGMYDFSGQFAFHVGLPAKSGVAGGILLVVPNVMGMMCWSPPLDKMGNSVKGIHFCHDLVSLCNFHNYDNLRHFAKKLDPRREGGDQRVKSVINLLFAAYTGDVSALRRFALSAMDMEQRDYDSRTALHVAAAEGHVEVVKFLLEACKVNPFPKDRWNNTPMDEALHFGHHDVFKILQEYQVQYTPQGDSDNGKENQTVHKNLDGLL
Experimental: Glutaminase assay. N-terminal 6×-His tagged GLS1 was expressed and purified from chemically competent BL-21 E. coli using Ni-NTA agarose beads (Qiagen). Purified protein was then dialyzed in a 50 mM Tris-phosphate buffer containing 1 mM dithiothreitol at 4° C. overnight. A previously described two-step assay was used to measure glutaminase activity (Kenny et al., 2003). […] […] […] For the second step of the assay, 20 μL of completed and quenched initial reaction were transferred to a new plate and 200 μL of secondary reaction mix containing 0.4 mg bovine liver glutamate dehydrogenase (Sigma-Aldrich), 0.09 M Tris-acetate (pH 9.4), 0.2 M hydrazine, 0.25 mM ADP, and 2 mM NAD was added. Samples were incubated for 40 minutes at room temperature and absorbance of NADH (340 nm) was measured using a microplate spectrophotometer.

Nc1nc2c(nc(Br)n2[C@@H]2O[C@@H]3COP(=O)(O)O[C@H]3[C@H]2O)c(=O)[nH]1 [8-bromo-cGMP]
Secreted (extracellular) 2HG [1]: did not cause a reduction

O=C(Cc1ccccc1)Nc1nnc(CCSCCc2nnc(NC(=O)Cc3ccccc3)s2)s1 [BPTES]
Cellular 3-phosphoglycerate (3PG) level (HT1080 cells): did not cause an elevation
2HG levels in D54 cells [2]: unaffected
Growth of D54 cells expressing IDH1 R132H compared to wild type IDH1 [2]: preferentially limits growth

COCc1cc(O)c(O)c(O)c1-c1c(COC)cc(O)c(O)c1O [HBDDE]
Viability in high-throughput screen (Alamar Blue) ([1]; HT1080, 48 hours): little effect on viability
2HG in high-throughput screen ([1]; HT1080, 48 hours, screen hits top left quadrant): reduced 2HG

CCCc1nn(C)c2c(=O)[nH]c(-c3cc(S(=O)(=O)N4CCN(C)CC4)ccc3OCC)nc12 [Sildenafil]
Secreted (extracellular) 2HG [1]: no change

Nc1nc2c(ncn2[C@@H]2O[C@@H]3COP(=O)(O)O[C@H]3[C@H]2O)c(=O)[nH]1 [cGMP]
Effect on GLS1 enzymatic activity [3]: no direct effect
